From EP0504807B1, “Use of bis-(p-hydroxyphenylthio)methane derivatives to inhibit progressive development of insulin-dependent diabetes mellitus” (MERRELL PHARMACEUTICALS INC., priority 1991, dated 1992)

Assays:
[1] = tested on: Female NOD mice; test: Prevention of the progressive development of IDDM in the NOD mouse (incidence of diabetes by urine glucose and plasma glucose); format: in vivo
From the text: The non-obese diabetic (NOD) mouse has a genetic predisposition to developing IDDM, particularly among the females. Diabetes begins to appear at 12-14 weeks of age and by 30-36 weeks of age about 75-85% of female NOD's will have developed IDDM. As such, the NOD mouse provides a standard experimental model for IDDM in man which is well known and appreciated by those skilled in the art [see Lampeter, et al: Diabetologia 32, 703 (1989)]. The effect of experimental agents on the NOD mouse can thus be studied to determine whether these agents are active in inhibiting the development of diabetes.
Female NOD mice were maintained on standard laboratory rodent feed containing either 0% (Control Group) or 1% bis(3,5-di-tertiary-butyl-4-hydroxyphenylthio)methane (Treated Group) as an admixture. The mice were started on these diets at 4 weeks of age and continued until they were 24 weeks old. Each mouse was tested for diabetes at 8, 12, 14, 16, 18, 20, 22 and 24 weeks of age. Diabetic mice were detected by a positive urine glucose measurement and were confirmed by a plasma glucose level greater than 300 mg/dL. Urine glucose was determined using Diastix™ reagent strips for urinalysis (Miles Inc., Diagnostics Division, Elkhart, IN) and plasma glucose using Glucose (GDH Endpoint) Reagent™ (Seradyn, Inc., Indianapolis, IN).
Mice were counted as diabetic if a positive urine glucose and plasma glucose greater than 300 mg/dL were determined on 3 consecutive measurements. If mice were determined to be diabetic for 1 or 2 consecutive measurements and then died with physical indications of IDDM such as severe weight loss, these mice were also counted as diabetic.
At 24 weeks of age, 30 of 61 mice in the Control Group (49%) had become diabetic compared to 2 of 51 mice in the Treated Group (4%).
The treated, nondiabetic mice (N=38) not sacrificed at 24 weeks of age were switched to control diet and monitored, along with the 21 remaining controls, for 24 more weeks. During this period, 13 of 21 (62%) controls and 13 of 38 (34%) previously treated mice developed diabetes (p=0.04). Combining the two 24 week study periods, the percentage of mice that developed diabetes among the controls was 81% (51% of the controls were nondiabetic after 24 weeks of study and 38% of these were still nondiabetic after 24 more weeks for an overall total of 19% nondiabetic control animals). Among the group treated for 24 weeks the percentage of mice that developed diabetes after 48 weeks of study was 37% (96% were nondiabetic after 24 weeks and 66% of these were still nondiabetic 24 weeks after stopping treatment).

[2] = tested on: Female NOD mice; test: Pancreatic histopathology of NOD mice at 24 weeks of age (hematoxylin and eosin, immunoperoxidase for insulin); format: in vivo, NOD mouse; conditions: 1% in feed
From the text: At 24 weeks of age, randomly selected control (N=10) and treated (N=10) nondiabetic mice and all surviving diabetic control (N=15) and treated (N=1) mice were sacrificed. Pancreata were collected and stored in formalin, processed, embedded, and sectioned by standard histological methods. Sections stained with hemotoxylin and eosin or by immunoperoxidase for insulin (as a marker for the presence of β-cells) were examined light microscopically. […]

[3] = Clinical Status Diabetic, 1 mouse
[4] = Clinical Status Nondiabetic, 10 mice

Q: `CC(C)(C)c1cc(SCSc2cc(C(C)(C)C)c(O)c(C(C)(C)C)c2)cc(C(C)(C)C)c1O` [Bis(3,5-di-tertiary-butyl-4-hydroxyphenylthio)methane] was tested. Which “percentage of mice that developed diabetes” value ([1]; after 48 weeks of study, group treated for 24 weeks, two 24 week periods combined, controls 81%) did it give?
A: 37%

Q: What about the treated mice nondiabetic ([1]; at 24 weeks of age / after 24 weeks of study, 1% in feed, controls 51%) of the same compound?
A: 96%

Q: And the “mice that had become diabetic” value ([1]; at 24 weeks of age, 1% in feed as an admixture from 4 to 24 weeks of age, Control Group 30 of 61)?
A: 2 of 51

Q: What about the “mice that had become diabetic (percentage)” value ([1]; at 24 weeks of age, 1% in feed from 4 to 24 weeks of age, Control Group 49%) of the same compound?
A: 4%

Q: What about the “still nondiabetic 24 weeks after stopping treatment” value ([1]; of the mice nondiabetic after 24 weeks of treatment, controls 38%) of the same compound?
A: 66%

Q: And the “previously treated mice that developed diabetes” value ([1]; treated nondiabetic mice switched to control diet at 24 weeks of age, monitored 24 more weeks, controls 13 of 21, p=0.04)?
A: 13 of 38

Q: And the “previously treated mice that developed diabetes (percentage)” value ([1]; treated nondiabetic mice switched to control diet at 24 weeks of age, monitored 24 more weeks, controls 62%, p=0.04)?
A: 34%

Q: And the Atrophy [2, 3]?
A: 1 number of mice

Q: What about the Insulitis [2, 3] of the same compound?
A: 1 number of mice

Q: And the “β-Cells Present” value [2, 3]?
A: 1 number of mice

Q: What about the Atrophy [2, 4] of the same compound?
A: 2 number of mice

Q: And the Insulitis [2, 4]?
A: 9 number of mice
